The text below walks through data of patent US20060040905A1 (priority 2002, published 2006).

One data set concerns hot plate test. The following applies: in vivo; cited from earlier work.
The nature of data set [1]: stability in solution across pH range. It is filed as physicochemical. Conditions: wide pH range (4-7) including pH 5.5-6.5. The source says: (§1) Nefopam may thus be rapidly and completely absorbed from the nasal cavity and provide the rapid onset of action required to bring pain relief.
The subject of data set [2] is nasal epithelial cell-line (RPMI 2650). Nature of the data set: cytotoxicity against nasal epithelial cell-line. The data set is classed as cell-based. Conditions: RPMI 2650 cells; even at high concentrations (>5 mM).
A short description of a further data set: solubility. The data set is classed as physicochemical.
From the text: as §1

The nature of data set [3]: stability with excipients individually. It is filed as physicochemical.
The conditions of data set [4]: in vivo; cited from earlier work.
Data set [5] deals with Randall-Selitto pressure test. Conditions: rats; cited from earlier work.
The test system of a further data set is mouse tail-flick test. Conditions: cited from earlier work.

On to `CN1CCOC(c2ccccc2)c2ccccc2C1` (racemic) [nefopam], for which the “activity in hot plate test” value in the data set with hot plate test is recorded as “not active”. For the same compound, the stability in solution result in data set [1] is reported as “stable in solution”. Further, the cytotoxicity result in data set [2] is on record as “no cytotoxicity”. Also, the solubility result in the data set “solubility” is recorded as “highly soluble”. The “stability with all the excipients individually” value in data set [3] (4 weeks incubation at 25° C.) and in data set [3] (4 weeks incubation at 50° C.) was “demonstrated” throughout. Also, the elimination half-life result in data set [4] is listed as “four”. Besides, the “activity in Randall-Selitto pressure test” value in data set [5] is on record as “not active”. The “activity in mouse tail-flick test” value in the data set with mouse tail-flick test is given as “not active”.
